ChEMBL document CHEMBL1201862, “PubChem BioAssay data set” (2004)
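These data come from cells grown in 96-well plates and exposed to compound for 48 hours at five concentrations. GI50 is the concentration that inhibits growth by half.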 Activity calls are given as the source filed them. No stated cut-off is given here; in the data, active = GI50 up to about 1.1 µM and inactive = higher.

Tests used:
Assay in all cases: growth of human tumour cells (NCI), 48 h
[1] = test system: SK-OV-3
[2] = test system: UACC-257
[3] = test system: CAKI-1
[4] = test system: SF-268
[5] = test system: SK-MEL-2
[6] = test system: 786-0
[7] = test system: HOP-62
[8] = test system: NCI/ADR-RES
[9] = test system: SN12C
[10] = test system: SK-MEL-5
[11] = test system: OVCAR-4
[12] = test system: UACC-62
[13] = test system: EKVX
[14] = test system: CCRF-CEM
[15] = test system: HCT-15
[16] = test system: DU-145
[17] = test system: OVCAR-3
[18] = test system: MDA-MB-435
[19] = test system: HCC 2998

Compound	GI50 [1]	GI50 [2]	GI50 [3]	GI50 [4]	GI50 [5]	GI50 [6]	GI50 [7]	GI50 [8]	GI50 [9]	GI50 [10]	GI50 [11]	GI50 [12]	GI50 [13]	GI50 [14]	GI50 [15] [µM]	GI50 [16]	GI50 [17]	GI50 [18]	GI50 [19]
O=S(=O)(c1cc(Cl)ccc1Cl)n1ccnc1	> 100 µM (inactive)	26.7 µM (inactive)	39.7 µM (inactive)	45.1 µM (inactive)	30.5 µM (inactive)	54.2 µM (inactive)	48 µM (inactive)	20.2 µM (inactive)	30.2 µM (inactive)	18.8 µM (inactive)	43 µM (inactive)	33.1 µM (inactive)	61.2 µM (inactive)	37.3 µM (inactive)	24.7	35.4 µM (inactive)	46.9 µM (inactive)	18.2 µM (inactive)	15.8 µM (inactive)
N=c1oc2ccc(Cl)cc2cc1C(=O)Nc1ccccc1	23.3 µM (inactive)	> 54.6 µM (inactive)	11.1 µM (inactive)	> 76 µM (inactive)	> 100 µM (inactive)	10.7 µM (inactive)	21.6 µM (inactive)	17.3 µM (inactive)	> 100 µM (inactive)	> 100 µM (inactive)	> 100 µM (inactive)	> 100 µM (inactive)	> 59 µM (inactive)	> 100 µM (inactive)	> 100	> 100 µM (inactive)	> 100 µM (inactive)	> 100 µM (inactive)	36.3 µM (inactive)
O=C1c2cc(Cl)ccc2N=C(NC2CCCC2)C2CSCN12 (centres undefined)	> 100 µM (inactive)	71.6 µM (inactive)	> 100 µM (inactive)	66.5 µM (inactive)	36.2 µM (inactive)	> 100 µM (inactive)	> 100 µM (inactive)	> 100 µM (inactive)	> 100 µM (inactive)	46.1 µM (inactive)	> 100 µM (inactive)	> 100 µM (inactive)	46.6 µM (inactive)	45.2 µM (inactive)	> 100	> 100 µM (inactive)	60 µM (inactive)	> 100 µM (inactive)	> 100 µM (inactive)
COCC12CCC(OC)C34C5CC6(O)C(OC)C=C(C5C6OC(=O)c5ccccc5)C(C(OC)C13)C4N(C)C2 (centres undefined)	> 100 µM (inactive)	> 100 µM (inactive)	> 100 µM (inactive)	> 100 µM (inactive)	> 100 µM (inactive)	> 100 µM (inactive)	> 100 µM (inactive)	> 100 µM (inactive)	> 100 µM (inactive)	> 100 µM (inactive)	> 100 µM (inactive)	> 100 µM (inactive)	> 100 µM (inactive)	> 100 µM (inactive)	> 100	> 100 µM (inactive)	> 100 µM (inactive)	> 100 µM (inactive)	> 100 µM (inactive)
Cc1cc2nc(N3C(=O)/C(=C/c4ccc(Cl)cc4)N=C3c3ccccc3)sc2cc1C	46.2 µM (inactive)	28.4 µM (inactive)	26.4 µM (inactive)	30 µM (inactive)	26.5 µM (inactive)	29.4 µM (inactive)	28.9 µM (inactive)	23.2 µM (inactive)	24 µM (inactive)	16.1 µM (inactive)	20 µM (inactive)	30.8 µM (inactive)	24.4 µM (inactive)	18.1 µM (inactive)	29.1	50.8 µM (inactive)	15.7 µM (inactive)	8.28 µM (inactive)	24.2 µM (inactive)
O=C(c1ccccc1)C1N=NCC1c1ccc([N+](=O)[O-])cc1 (centres undefined)	> 100 µM (inactive)	27 µM (inactive)	15 µM (inactive)	40.5 µM (inactive)	46.9 µM (inactive)	> 100 µM (inactive)	> 100 µM (inactive)	39.3 µM (inactive)	> 100 µM (inactive)	26.1 µM (inactive)	49.2 µM (inactive)	49.4 µM (inactive)	89.1 µM (inactive)	0.935 µM (active)	45.8	18.4 µM (inactive)	17.1 µM (inactive)	49.1 µM (inactive)	> 100 µM (inactive)
CCC(CCCN)Nc1cc(OC)cc2cccnc12 (centres undefined)	> 100 µM (inactive)	15.5 µM (inactive)	> 100 µM (inactive)	> 100 µM (inactive)	> 100 µM (inactive)	> 100 µM (inactive)	> 100 µM (inactive)	> 100 µM (inactive)	> 100 µM (inactive)	85.1 µM (inactive)	90.2 µM (inactive)	46.3 µM (inactive)	> 100 µM (inactive)	48.9 µM (inactive)	> 100	> 100 µM (inactive)	40.4 µM (inactive)	> 100 µM (inactive)	22.7 µM (inactive)
COC(=O)c1nc2n(n1)-c1ccccc1C(=O)N(Cc1ccccc1)C2	> 100 µM (inactive)	> 100 µM (inactive)	> 100 µM (inactive)	> 100 µM (inactive)	> 100 µM (inactive)	> 100 µM (inactive)	> 100 µM (inactive)	> 100 µM (inactive)	> 100 µM (inactive)	> 100 µM (inactive)	> 100 µM (inactive)	> 100 µM (inactive)	> 100 µM (inactive)	> 100 µM (inactive)	> 100	> 100 µM (inactive)	> 100 µM (inactive)	> 100 µM (inactive)	40.4 µM (inactive)
N#Cc1c(O)nc2[nH]nc(/N=N\c3c(O)ccc4ccccc34)c2c1-c1ccc(Cl)cc1	0.187 µM (active)	0.851 µM (active)	0.282 µM (active)	0.0682 µM (active)	0.202 µM (active)	0.0689 µM (active)	0.164 µM (active)	0.0975 µM (active)	0.391 µM (active)	0.369 µM (active)	0.241 µM (active)	0.103 µM (active)	0.219 µM (active)	< 0.0371 µM (active)	0.019	0.17 µM (active)	0.0667 µM (active)	0.789 µM (active)	0.359 µM (active)
COc1cccc2c1C(=O)c1c(O)c3c(c(O)c1C2=O)CC(O)(C(=O)CO)CC3OC1CC(N2CCOCC2C#N)C(O)C(C)O1 (centres undefined)	> 0.01 µM (active)	< 0.0001 µM (active)	< 0.0001 µM (active)	> 0.01 µM (active)	< 0.0001 µM (active)	< 0.0001 µM (active)	< 0.0001 µM (active)	< 0.0001 µM (active)	< 0.0001 µM (active)	< 0.0001 µM (active)	> 0.01 µM (active)	< 0.0001 µM (active)	< 0.0001 µM (active)	< 0.0001 µM (active)	< 0.0001	< 0.0001 µM (active)	< 0.0001 µM (active)	< 0.0001 µM (active)	< 0.0001 µM (active)
CCN(CC)C(=S)SS(=O)(=O)c1ccccc1[N+](=O)[O-]	> 71.4 µM (inactive)	36.8 µM (inactive)	22.3 µM (inactive)	30.7 µM (inactive)	> 76.7 µM (inactive)	18.6 µM (inactive)	22 µM (inactive)	41.3 µM (inactive)	22 µM (inactive)	5.83 µM (inactive)	44.3 µM (inactive)	35 µM (inactive)	> 100 µM (inactive)	2.51 µM (inactive)	57.9	27.3 µM (inactive)	22.2 µM (inactive)	21.7 µM (inactive)	> 49.2 µM (inactive)
